# Test results: patent US5650442A (priority 1994, dated 1997)
# Entries after “also recorded” stand apart in the source; their conditions may differ.
# Experiments:
# [1] = system: Chinese hamster V79 lung fibroblasts; experiment: Radiation survival of aerobic V79 cells, clonogenic assay; format: cell-based; conditions: 2.0 mM
# Experimental: (§1) Chinese hamster V79 lung fibroblasts were cultured in F12 medium supplemented with 10% fetal calf serum and antibiotics. […] The assay system was specifically designed to evaluate radiation sensitivity of cells exposed to radiation under both aerobic and hypoxic conditions (Mitchell et al., Radiat. Res., 96, 422-428 (1983); Russo et al., Radiat. Res., 103, 232-239 (1985); and DeGraff et al., Int. J. Radiat. Oncol. Biol. Phys., 16, 1021-1024 (1989)).
# (§2) When cultured cells were exposed to DEA/NO in subsequent examples, DEA/NO in F12 medium with 10 mM HEPES buffer, pH 7.0, was used. […] Control cells in subsequent examples were exposed to 0.02N NaOH, instead of DEA/NO.
# (§3) Following irradiation, the various cell suspensions were pipetted, counted, diluted, and plated for macroscopic colony formation. Each dose determination was plated in triplicate and experiments were repeated a minimum of two times. Plates were incubated for seven days, after which colonies were fixed with methanol/acetic acid (3:1), stained with crystal violet, and counted. Colonies containing >50 cells were scored and graphed as FIGS. 1-3. Error bars in the graphs represent the standard deviation of the mean and are shown when larger than the symbol used to designate a data point. Survival curve data were fitted using a linear quadratic model of Albright (Radiat. Res., 112, 331-340 (1987)), and the survival curves shown in the figures represent the best fit curves for the experimental data points. Sensitizer enhancement ratios (SER) were calculated by dividing the radiation dose for control hypoxic conditions by the radiation dose for various agents under hypoxic conditions at the 1% surviving fraction level.
# [2] = system: Chinese hamster V79 lung fibroblasts; experiment: Radiation survival of hypoxic V79 cells (metabolism-mediated oxygen depletion), clonogenic assay, SER; format: cell-based; conditions: for modification of hypoxic radiosensitivity: 2.0 mM; for SER: 2.00 mM, hypoxic, 1% surviving fraction level, ± SD
# Experimental: as §1, §2
# The induction of hypoxia in dense cell suspensions by metabolism-mediated oxygen depletion was carried out as described by Mitchell et al. (supra) and Phillips et al. (Int. J. Radiat. Oncol. Biol. Phys., 12, 1627-1635 (1986)). Briefly, stock cultures of exponentially growing Chinese hamster V79 lung fibroblasts in 850 cm^2 roller bottles were trypsinized, rinsed with medium, and counted. Samples of 10^8 cells were then placed in 15 ml centrifuge tubes, centrifuged at 1,000 rpm for 5 min at 25° C., and rinsed once with medium or medium containing DEA/NO (final concentrations ranging from 0.1-2.0 mM), nitrite, diethylamine, or DEA/NO that had been allowed to decompose in full medium overnight at 37° C.
# The cell suspension was taken up into a 3 ml glass syringe with a 18 gauge spinal needle. Air bubbles were removed, and a 25 gauge needle was fitted onto the syringe. The syringe was rotated by hand at room temperature for 20 min to allow for cellular metabolic oxygen consumption. The syringe was then placed in a lucite block and irradiated. After a given dose of radiation, 1-3 drops of cell suspension were discarded, and 1-2 drops were collected in tubes containing drug-free medium. In this manner an entire hypoxic survival curve for a given treatment condition can be obtained from a single syringe.
# (§4) Hypoxic Chinese hamster V79 lung fibroblasts of Example 2 were irradiated at room temperature with 4 MeV photons from a linear accelerator at a dose rate of 1.5 Gy/min. Full electron equilibrium was ensured for all irradiations.
# as §3
# (§5) Radiation survival curves for V79 cells exposed to varying concentrations of DEA/NO and various DEA/NO decomposition products under hypoxic conditions (metabolic hypoxia induction) are shown in FIG. 1A, which is a graph of the surviving fraction versus dose (Gy).
# [3] = system: Chinese hamster V79 lung fibroblasts; experiment: Cytotoxicity of the agents alone to V79 cells, clonogenic assay; conditions: 2.0 mM
# Experimental: as §1, §2
# as §5, with “(Gy). Lines in FIG. 1A represent control (.circle-solid.) and 0.1 mM (Δ), 0.5 mM (.largecircle.), 1.0 mM (.quadrature.), and 2.0 mM (.box-solid.) DEA/NO. Survival curves were corrected for drug cytotoxicity as appropriate.” for “(Gy).”
# DEA/NO (2.0 mM) was allowed to decompose to liberate NO in medium maintained at 37° C. overnight in a flask open to the air for use as an additional control. The medium containing the DEA/NO decomposition products was then used to evaluate possible effects on radiosensitization.
# normal tissues = conditions: clinical radiotherapy trials; cited from earlier work
# [4] = system: Chinese hamster V79 fibroblasts; experiment: Chemosensitization of V79 cells to bioreductive agents (mitomycin C, SR 4233); conditions: hypoxic, 1 hr
# [5] = system: Chinese hamster V79 cells; experiment: Survival of hypoxic V79 cells after a single radiation dose; format: cell-based; conditions: vs control cells
# Experimental: Chinese hamster V79 cells were exposed to 15 Gy radiation under hypoxic conditions in the absence or presence of 1 mM SPER/NO (H2 N(CH2)3 N[N(O)NO]^- (CH2)4 NH2^+ (CH2)3 NH2).
# Chinese hamster V79 cells were exposed to 20 Gy radiation under hypoxic conditions in the absence or presence of 2 mM SNAP.
# Chinese hamster V79 cells were exposed to a single 20 Gy dose of radiation in the absence or presence of 2 mM SIN-1 or PAPA/NO. […] The data are consistent with the requirement of SIN-1 for oxygen, unlike the NONOates, which release NO independent of oxygen levels.
# [6] = system: Chinese hamster V79 fibroblasts; experiment: Protection of V79 cells from cisplatin cytotoxicity; format: cell-based; conditions: 1 mM, 1 hr
# Experimental: Chinese hamster V79 fibroblasts were exposed to varying concentrations of cisplatin under aerobic conditions for 1 hr in the presence or absence of 1 mM PAPA/NO, n-propyl-1,3-propane diamine (PPD), or released PAPA/NO under aerobic conditions. Methods used were as described in Examples 2 and 13.
# [7] = system: transplantable murine tumor; conditions: mouse, in vivo; cited from earlier work
# [8] = system: embryohal ovarian carcinoma (EOC) ascites tumors; experiment: Survival of mice with EOC ascites tumors treated with melphalan with or without DEA/NO; format: in vivo, C3H mice
# Experimental: Female C3H mice with embryohal ovarian carcinoma (EOC) ascites tumors were generated by intraperitoneal injection of 1.0×10^5 EOC cells at 10 weeks. Eight days later, when ascites were grossly evident, the animals were injected intraperitoneally with phosphate-buffered saline (PBS) as a control, melphalan (6.25 mg/kg), or melphan in combination with DEA/NO (70 mg/kg). Animals were assessed daily for survival.
# FIG. 17 is a graph of % survival of animals versus days after treatment showing survival curves for animals treated with melphalan in the presence or absence of DEA/NO compared to control animals. Median survival of the control group was 15 days. Median survival of the group of mice treated with melphalan alone was 20 days, whereas median survival of the group of mice treated with melphalan and DEA/NO was 27 days.
# rodent tumors = conditions: hyperbaric oxygen (100%); cited from earlier work
# cells in culture = conditions: aerobic (~20% oxygen) vs hypoxic (<0.5% oxygen); cited from earlier work
# [9] = system: Chinese hamster V79 lung fibroblasts; experiment: Radiation survival of hypoxic V79 monolayers gassed with nitrogen and exposed to NO gas; format: cell-based
# Experimental: as §4, §3
# hypoxic cells = conditions: without the nitrobenzoyl group; cited from earlier work
# hypoxic bacterial cells = conditions: cited from earlier work
# lungs = conditions: NO gas, in vivo; cited from earlier work
molecule,measurement,setting,value
"CCNCC [Diethylamine, diethylamine, reference compound]",effect on aerobic radiosensitivity,[1],did not significantly alter the aerobic radiosensitivity
same,modification of hypoxic radiosensitivity,[2],nor did any of these agents significantly modify hypoxic radiosensitivity
same,SER,[2],1.0
same,cytotoxicity of decomposition products alone,[3],"Neither nitrite, diethylamine, or decomposed DEA/NO alone resulted in any cytotoxicity"
"COCC(O)Cn1ccnc1[N+](=O)[O-] (centres unmarked) [Misonidazole, misonidazole]",toxicity to normal tissues,normal tissues,"toxic to normal tissues, causing peripheral neuropathy"
"O=NO [Nitrite, nitrite, reference compound]",effect on aerobic radiosensitivity,[1],did not significantly alter the aerobic radiosensitivity
same,modification of hypoxic radiosensitivity,[2],nor did any of these agents significantly modify hypoxic radiosensitivity
same,SER,[2],1.0
same,cytotoxicity of decomposition products alone,[3],"Neither nitrite, diethylamine, or decomposed DEA/NO alone resulted in any cytotoxicity"
CCCN(CCCN)/[N+]([O-])=N/O [PAPA/NO],enhancement of hypoxic cytotoxicity of SR 4233,"[4]; 25 μm SR 4233, 1 mM",enhance the hypoxic cytotoxicity of SR 4233
same,"colonies formed when 100,000 cells were plated",[4]; 25 μm SR 4233 plus 1 mM,no colonies were formed
same,susceptibility of hypoxic cells to radiation,"[5]; 2 mM plus 20 Gy, Example 10",much more susceptible to radiation than control cells
same,protection against aerobic cisplatin-induced cytotoxicity,[6],protected V79 fibroblasts against aerobic cisplatin-induced cytotoxicity
"Cl.N=c1c[n+](N2CCOCC2)[n-]o1 [SIN-1, 3-morpholino-sydnonimine hydrochloride, reference compound]",enhancement of tumor radiation sensitivity,[7],enhances the radiation sensitivity of a transplantable murine tumor
same,susceptibility of hypoxic cells to radiation,"[5]; 2 mM plus 20 Gy, Example 10",not significantly sensitized to radiation as compared to control cells
"CC(=O)N[C@H](C(=O)O)C(C)(C)SN=O [SNAP, S-nitroso-N-acetyl penicillamine, reference compound]",susceptibility of hypoxic cells to radiation,"[5]; 2 mM plus 20 Gy, Example 7",significantly more susceptible to radiation than control cells
NCCCNCCCCN(CCCN)/[N+]([O-])=N/O [SPER/NO],susceptibility of hypoxic cells to radiation,[5]; 1 mM plus 15 Gy,more susceptible to radiation than control cells
N[C@@H](Cc1ccc(N(CCCl)CCCl)cc1)C(=O)O [melphalan],Overall survival vs control group,[8]; log-rank testing,significantly longer than the control group
same,Median survival,"[8]; melphalan 6.25 mg/kg i.p., with or without DEA/NO 70 mg/kg",20 days
O=O [oxygen],hypoxic radiosensitization in rodent tumors,rodent tumors,some degree of hypoxic radiosensitization in rodent tumors
same,enhancement of killing of cells in culture with X-rays (factor),cells in culture,2-3
same,EC50,"[9]; Cricetulus griseus, Fibroblast, hypoxic cell radiosensitization, read-out: k value (concentration required to yield half the maximum effect)",2500 µg/mL
NCCCCNCCCN [spermidine],sensitizing properties,hypoxic cells,failed to demonstrate any sensitizing properties whatsoever
NCCCNCCCCNCCCN [spermine],sensitizing properties,hypoxic cells,failed to demonstrate any sensitizing properties whatsoever
nitric oxide [NO gas],toxicity in the absence of radiation,hypoxic bacterial cells,nontoxic in the absence of radiation
same,radiosensitization of hypoxic bacterial cells,hypoxic bacterial cells; ionizing radiation,sensitizes hypoxic bacterial cells to ionizing radiation
same,SER,"[9]; 10^5 ppm NO, hypoxic",3.2
same,hypoxic cell radiosensitization,[9]; NO gas vs control / oxygen,potent hypoxic cell radiosensitizer; also recorded: not as efficient as oxygen in hypoxic cell radiosensitization
same,damage on administration of high concentrations,lungs,damage to the lungs
